According to patent publication US5869500A, “Pyridone compounds useful in treating Alzheimer's disease” (Hoffmann-La Roche Inc., priority 1996, dated 1999):

Legend:
[1] = system: Aβ production in HEK cells over-expressing Wild type β-APP; test: Aβ production inhibition, sandwich-ELISA in HEK cells which over-express Wild type β-APP (SE-WT); format: cell-based, human; conditions: for Emax: HEK293, maximum inhibition plateau, read-out: SE-WT max. inhibition %
Procedure: (§1) The effect of test substances on the inhibition of Aβ-amyloid production can be measured in the supernatant of cell cultures of β-APP expressed cells using ELISA tests or other quantitative determination methods for β-APP degradation products. Typically, 8×10^5 cells (e.g. HEK cells, which express recombinant human β-APP variants) are plated out in each well of a culture dish having 24 wells in growth media such as e.g. OPTIMEM (Gibco) and the test compound is then added. After an incubation period of 24 to 48 hours at 37° C. in a 10% CO2 atmosphere the supernatant is removed from the cell cultures and the β-APP degradation products (e.g. Aβ or β-[…]) are determined with the aid of ELISA (or sandwich ELISA) analysis or by means of quantitative immunoprecipitation (after metabolic radiolabelling of the cell proteins). Typically, 300 μl of the cell supernatant are tested according to the state of the art for ELISA tests in culture dishes having 96 wells. In the case of sandwich ELISA for Aβ, the binding antibody can be directed against the first 16 amino acids of Aβ-peptide (e.g. 6E10 Senetek, Maryland Heights, Mo.) and the detection antibody can be directed against amino acids 17-40 or 17-42 of Aβ and carries a detection system such as e.g. peroxidase. A simple ELISA test with an antibody, e.g. 22C11 (Boehringer Mannheim), can be used as the test for […]; the second antibody can be an anti-(mouse) Ig having a detection system, such as e.g. peroxidase. The peroxidase reaction can be carried out e.g. using a TMB substrate (BioRAD) and the measurements can be carried out at 650 nm using an ELISA reading apparatus. […] SE-SFAD signifies the Aβ production inhibition measured using sandwich-ELISA in HEK cells, SFAD signifies over-expressed mutated β-APP, and SE-WT signifies the Aβ production inhibition measured using sandwich-ELISA in HEK cells which over-express Wild type β-APP. The IC50 values are based on the respective plateau of maximum inhibition.

[2] = system: Aβ production in HEK cells over-expressing mutated β-APP (SFAD); test: Aβ production inhibition, sandwich-ELISA in HEK cells, over-expressed mutated β-APP (SE-SFAD); format: cell-based, human; conditions: for IC50: based on the respective plateau of maximum inhibition; for Emax: read-out: SE-SFAD max. inhibition %
Procedure: as §1

[3] = Homo sapiens, HEK293, based on the respective plateau of maximum inhibition
[4] = Homo sapiens, HEK293, HEK cells
[5] = Homo sapiens, HEK293, HEK cells, maximum inhibition plateau

Row | Compound | IC50 ([1]; based on the respective plateau of maximum inhibition) | SE-WT max. inhibition % ([1]; maximum inhibition plateau) | IC50 ([2]; HEK cells) | SE-SFAD max. inhibition % ([2]; HEK cells, maximum inhibition plateau) | IC50 [1, 3] | Emax ([1]; Homo sapiens) | IC50 [2, 4] | Emax [2, 5]
1 | 8-(2-Benzoylamino-phenyl)-7-oxo-8-p-tolyl-7H-thieno[2,3-a]-quinolizine-10- carboxylic acid (2-methoxy-ethyl)-phenyl-amide [Compound 152] | 1.5 µM | 50-90% | 1.4 µM | 100% |  |  |  | 
2 | CCCOC1CN(C(=O)c2cc(-c3ccccc3)c(=O)n3ccc4ccsc4c23)C1 [Compound 1, 8-Phenyl-10-(3-propoxy-azetidin-1-carbonyl)-thieno[2,3-a]quinolizin-7-one] |  |  |  |  | 4 µM | 75% | 2 µM | 65%
3 | O=C(OCCn1ccnc1)c1cc(-c2ccccc2)c(=O)n2ccc3ccsc3c12 [Compound 2, 2-Imidazol-1-yl-ethyl 7-oxo-8-phenyl-7H-thieno[2,3-a]quinolizine-10-carboxylate] |  |  |  |  | 1.2 µM | 70% | 10 µM | 50%
4 | O=C1CC[C@H](COC(=O)c2cc(-c3ccccc3)c(=O)n3ccc4ccsc4c23)N1 [Compound 3, 5-Oxo-pyrrolidin-2-(R)-yl-methyl 7-oxo-8-phenyl-7H-thieno[2,3-a]-quinolizine-10-carboxylate] |  |  |  |  | 1 µM | 60% | 9.5 µM | 30%
5 | O=C1CC[C@@H](COC(=O)c2cc(-c3ccccc3)c(=O)n3ccc4ccsc4c23)N1 [Compound 4, 5-Oxo-pyrrolidin-2-(S)-yl-methyl 7-oxo-8-phenyl-7H-thieno[2,3-a]-quinolizine-10-carboxylate] |  |  |  |  | 5 µM | 25% | 10 µM | 25%
6 | O=C(OCCN1CCOC1=O)c1cc(-c2ccccc2)c(=O)n2ccc3ccsc3c12 [Compound 5, 2-(2-Oxo-oxazolidin-3-yl)-ethyl 7-oxo-8-phenyl-7H-thieno[2,3-a]-quinolizine-10-carboxylate] |  |  |  |  | 1.2 µM | 60% | 1 µM | 25%
7 | O=C(OCc1ccccn1)c1cc(-c2ccccc2)c(=O)n2ccc3ccsc3c12 [Compound 6, Pyridin-2-yl-methyl 7-oxo-8-phenyl-7H-thieno[2,3-a]quinolizine-10-carboxylate] |  |  |  |  | 0.6 µM | 75% | 3 µM | 50%
8 | COCC1CC(OC)CN1C(=O)c1cc(-c2ccccc2)c(=O)n2ccc3ccsc3c12 (stereo not shown) [Compound 8, 10-(4-Methoxy-2-methoxymethyl-pyrrolidine-1-carbonyl)-8-phenylthieno[2,3-a]quinolizin-7-one] |  |  |  |  | 12 µM | 25% | 1 µM | 35%
9 | CCOC1CCN(C(=O)c2cc(-c3ccccc3)c(=O)n3ccc4ccsc4c23)C1 (stereo not shown) [Compound 9, 10-(3-Ethoxy-pyrrolidine-1-carbonyl)-8-phenyl-thieno[2,3-a]quinolizin-7-one] |  |  |  |  | 40 µM | 50% | 5 µM | 35%
10 | CCCOC1CCN(C(=O)c2cc(-c3ccccc3)c(=O)n3ccc4ccsc4c23)C1 (stereo not shown) [Compound 10, 8-Phenyl-10-(3-propoxy-pyrrolidine-1-carbonyl)-thieno[2,3-a]-quinolizin-7-one] |  |  |  |  | 7 µM | 50% | 6.6 µM | 50%
11 | O=C(c1cc(-c2ccccc2)c(=O)n2ccc3ccsc3c12)N1CCC[C@@H]1CI [Compound 11, 10-(2-(R)-Iodomethyl-pyrrolidine-1-carbonyl)-8-phenyl-thieno[2,3-a]-quinolizin-7-one] |  |  |  |  | 11 µM | 100% |  | 
12 | CC(=O)OC[C@H]1CCCN1C(=O)c1cc(-c2ccccc2)c(=O)n2ccc3ccsc3c12 [Compound 12, 1-(7-Oxo-8-phenyl-7H-thieno[2,3-a]quinolizine-10-carbonyl)-pyrrolidin-2-(R)-yl-methyl acetate] |  |  |  |  | 1 µM | 50% |  | 
13 | COC1CCN(C(=O)c2cc(-c3ccccc3)c(=O)n3ccc4ccsc4c23)CC1 [Compound 13, 10-(4-Methoxy-piperidine-1-carbonyl)-8-phenyl-thieno[2,3-a]-quinolizin-7-one] |  |  |  |  | 4 µM | 80% | 5 µM | 30%
14 | COC1CCCN(C(=O)c2cc(-c3ccccc3)c(=O)n3ccc4ccsc4c23)C1 (stereo not shown) [Compound 14, 10-(3-Methoxy-piperidine-1-carbonyl)-8-phenyl-thieno[2,3-a]-quinolizine-7-on] |  |  |  |  | 8 µM | 70% | 2.3 µM | 50%
15 | CCOC(=O)CN1CCN(C(=O)c2cc(-c3ccccc3)c(=O)n3ccc4ccsc4c23)CC1 [Compound 16, Ethyl [4-(7-oxo-8-phenyl-7H-thieno[2,3-a]quinolizine-10-carbonyl)-piperazin-1-yl]-acetate methanesulphonate] |  |  |  |  | 6 µM | 70% | 3 µM | 30%
16 | COCCCN(C)C(=O)c1cc(-c2ccccc2)c(=O)n2ccc3ccsc3c12 [Compound 18, 7-Oxo-8-phenyl-7H-thieno[2,3-a]quinolizine-10-carboxylic acid (3-methoxy-propyl)-methyl-amide] |  |  |  |  | 7 µM | 40% | 4 µM | 30%
17 | COCCN(C)C(=O)c1cc(-c2ccccc2)c(=O)n2ccc3ccsc3c12 [Compound 19, 7-Oxo-8-phenyl-7H-thieno[2,3-a]quinolizine-10-carboxylic acid (2-methoxy-ethyl)-methyl-amide] |  |  |  |  | 20 µM | 100% |  | 
18 | CCN(CCOC)C(=O)c1cc(-c2ccccc2)c(=O)n2ccc3ccsc3c12 [Compound 20, 7-Oxo-8-phenyl-7H-thieno[2,3-a]quinolizine-10-carboxylic acid (2-methoxy-ethyl)-ethyl-amide] |  |  |  |  | 9 µM | 70% | 15 µM | 30%
19 | CCN(CCO)C(=O)c1cc(-c2ccccc2)c(=O)n2ccc3ccsc3c12 [Compound 21, 7-Oxo-8-phenyl-7H-thieno[2,3-a]quinolizine-10-carboxylic acid (2-hydroxy-ethyl)-ethyl-amide] |  |  |  |  | 40 µM | 100% |  | 
20 | COCCN(CCOC)C(=O)c1cc(-c2ccccc2)c(=O)n2ccc3ccsc3c12 [Compound 22, 7-Oxo-8-phenyl-7H-thieno[2,3-a]quinolizine-10-carboxylic acid bis-(2-methoxy-ethyl)-amide] |  |  |  |  | 2.5 µM | 80% | 2 µM | 80%
21 | COCCN(CC1CC1)C(=O)c1cc(-c2ccc(OC)cc2)c(=O)n2ccc3ccsc3c12 [Compound 146, 8-(4-Methoxy-phenyl)-7-oxo-7H-thieno[2,3-a]quinolizine-10-carboxylic acid cyclopropylmethyl-(2-methoxy-ethyl)-amide] |  |  |  |  |  |  | 1.5 µM | 100%
22 | COCCN(C(=O)c1cc(-c2ccc(OC)cc2)c(=O)n2ccc3ccsc3c12)c1ccccc1 [Compound 147, 8-(4-Methoxy-phenyl)-7-oxo-7H-thieno[2,3-a]quinolizine-10-carboxylic acid (2-methoxy-ethyl)-phenyl-amide] |  |  |  |  |  |  | 1.5 µM | 100%
23 | CCCN(CCOC)C(=O)c1cc(-c2ccc(OC)cc2)c(=O)n2ccc3ccsc3c12 [Compound 148, 8-(4-Methoxy-phenyl)-7-oxo-7H-thieno[2,3-a]quinolizine-10-carboxylic acid (2-methoxy-ethyl)-propyl-amide] |  |  |  |  |  |  | 5 µM | 100%
24 | CCN(CCOC)C(=O)c1cc(-c2ccc(C)cc2)c(=O)n2ccc3ccsc3c12 [Compound 149, 7--Oxo-8-p-tolyl-7H-thieno[2,3-a]quinolizine-10-carboxylic acid ethyl-(2-methoxy-ethyl)-amide] |  |  |  |  |  |  | 2.4 µM | 100%
25 | COCCN(CCOC)C(=O)c1cc(-c2ccc(C)cc2)c(=O)n2ccc3ccsc3c12 [Compound 150, 7--Oxo-8-p-tolyl-7H-thieno[2,3-a]quinolizine-10-carboxylic acid bis-(2-methoxy-ethyl)-amide] |  |  |  |  |  |  | 2.7 µM | 100%
26 | CCOC(=O)c1cc(-c2ccc(C)cc2)c(=O)n2ccc3ccsc3c12 [Compound 151, Ethyl 7-oxo-8-p-tolyl-7H-thieno[2,3-a]quinolizine-10-carboxylate] |  |  |  |  |  |  | 0.8 µM | 100%
27 | COCCN(C(=O)c1cc(-c2ccccc2N)c(=O)n2ccc3ccsc3c12)c1ccccc1 [Compound 153, 8-(2-Amino-phenyl)-7-oxo-7H-thieno[2,3-a]chinolizine-10-carboxylic acid (2-methoxy-ethyl)-phenyl-amide] |  |  |  |  |  |  |  | 20 to 40%
